For experiment [1], the system named is ob/ob mice. The experiment is described as follows: Intranasal (IN) efficacy, food intake in fasted ob/ob mice. Type of experiment: in vivo. Here is the method: Subjects: ob/ob mice; approximately 10 weeks old males; body weight 50-60 grams.
The mice were divided into the following groups: • 1) Mice received only vehicle. The vehicle was one of the following: water, 10 mM phosphate buffer, 5% captisol in 10 mM phosphate buffer (see Table 1 for details). • 2) Mice received a compound of an embodiment of the present invention at a dosage of 1 mg/kg. • 3) Mice received a compound of an embodiment of the present invention at a dosage of 3 mg/kg. • 4) Mice received a compound of an embodiment of the present invention at a dosage of 6 mg/kg. n=6-8 animals per group
Note: For compound 1 and compound 2, the 1 mg/kg group was not included.
Animals were fasted overnight (˜16 hours), and an MC4-R agonist compound as described in Tables 1-3 was administered at 8:30 am next day. The administration volume was 20-25 μl/50 grams of body weight. […]
IN Efficacy Procedure: Mice were fasted overnight. […] Food weight was measured at 1, 2, 3, 4, 6, and 8 hours following the dosing. […]
(§1) IN Efficacy Procedure: Mice were fasted overnight. […] Food weight was measured at 1, 2, 3, 4, 6, and 8 hours following the dosing.
as §1
IN Efficacy Procedure: Mice were fasted overnight. […] Food weight was measured at 1, 2, 3, 4, and 6 hours following the dosing.

In experiment [2] the test system is ob/ob mice. The experiment is described as follows: Oral (PO) efficacy, food intake in fasted ob/ob mice. Type of experiment: in vivo. Particulars: 30 mg/kg given orally, FIG. 1B. Here is the method:
Subjects: ob/ob mice, ˜10 weeks old males. Body weight ˜50 grams.
PO Efficacy Groups: • 1) Vehicle=water • 2) Compound 1=200 μl of 2.5 mg/ml (10 mg/kg) • 3) Compound 1=200 μl of 7.5 mg/ml (30 mg/kg) n=8/group fasted
PO Efficacy Procedure: Mice were fasted overnight. At about 9:00 am the next morning, they were dosed with 200 μl of vehicle or compound solution by oral gavage. Mice were fed with pre-weighed food immediately after dosing, and had access to water the entire time. Food weight was measured at 1, 2, 3, 4, 6, and 24 hours following the dosing.

For experiment [3] the following is noted: humans, cited from earlier work; for body fat: intranasal administration.
The conditions of experiment [4]: acute intranasal, humans; ACTH4-10 1 mg, desacetyl-αMSH equimolar 1.68 mg; cited from earlier work.
Setting [5] is: after intranasal administration.

As for `COc1ccc(CCNC(=O)c2ccc(N/C(=N/[C@H]3C[C@H]4C[C@@H]([C@@H]3C)C4(C)C)N3CCN[C@@H](C)C3)cc2)c(F)c1` [Compound 1], the “reduction in cumulative food intake” value in the experiment on ob/ob mice [1] (3 mg/kg administered intranasally, FIG. 1A) is 59%. The “increase in biological effect, intranasal versus oral, dose-normalised” value with ob/ob mice [1] (((59%/39%)÷(3/30)), 3 mg/kg intranasal vs 30 mg/kg oral) is reported as “approximately 15.1 times”. In addition, the “decrease in cumulative food intake” value in the experiment on ob/ob mice [2] is 39%.
Consider desacetyl-αMSH, for which the body fat entry in experiment [3] is listed as “nonsignificant”. Also, the “processing negativity (PN) of the ERP over frontal and central cortical areas” value in experiment [4] is listed as “ineffective”.
For “melanocyte stimulating hormone/adrenocorticotropin4-10 (MEHFRWG; Corticotropin; UniProt P01189 141-147, looked up, fragment) [MSH/ACTH4-10]”, in experiment [3] (setting [5]), the insulin levels entry is given as “decreased” and the plasma leptin levels entry is “decreased”. Moreover, in experiment [3], the body fat result is “reduced body fat”. In addition, the “processing negativity (PN) of the ERP over frontal and central cortical areas” value in experiment [4] is “reduced”.

The values are drawn from patent US20070004743A1, “Intranasal administration of mc4-r agonists” (priority 2002, published 2007).
